Results from patent US8410161B2, “Thioxanthone ring system derivatives” (National Defense Medical Center, priority 2010, dated 2013).

Legend:
Assay type in all cases: cell-based
T-47D = experiment: NCI in vitro DTP human cell line screen, T-47D; details: Breast Cancer, 1.00E−5 Molar
Protocol: (§1) Then, a cell toxicity assay of the cancer lines made by National Cancer Institute will be discussed as follows. The cell toxicity assay is performed by choosing ten compounds (existing certification numbers) from the 59 compounds disclosed in the present invention first.

M14 = experiment: NCI in vitro DTP human cell line screen, M14; details: Melanoma, 1.00E−5 Molar
Protocol: as §1

NCI-H522 = experiment: NCI in vitro DTP human cell line screen, NCI-H522; details: Non-Small Cell Lung Cancer, 1.00E−5 Molar
Protocol: as §1

786-0 = experiment: NCI in vitro DTP human cell line screen, 786-0; details: Renal Cancer, 1.00E−5 Molar
Protocol: as §1

HCT-116 = experiment: NCI in vitro DTP human cell line screen, HCT-116; details: Colon Cancer, 1.00E−5 Molar
Protocol: as §1

SNB-19 = experiment: NCI in vitro DTP human cell line screen, SNB-19; details: CNS Cancer, 1.00E−5 Molar
Protocol: as §1

BT-549 = experiment: NCI in vitro DTP human cell line screen, BT-549; details: Breast Cancer, 1.00E−5 Molar
Protocol: as §1

HCT-15 = experiment: NCI in vitro DTP human cell line screen, HCT-15; details: Colon Cancer, 1.00E−5 Molar
Protocol: as §1

HCC-2998 = experiment: NCI in vitro DTP human cell line screen, HCC-2998; details: Colon Cancer, 1.00E−5 Molar
Protocol: as §1

A3 cell lines = experiment: MTT assay, A3 cell lines (lung cancer stem cell)
Source text: Please to FIG. 4B, various cell viabilities of the A3 cell lines can be obtained through the MTT assay and illustrated in FIG. 4B while the compounds No. 1˜30 are used to treat A3 cell lines, wherein A3 cell lines are lung cancer stem cell.

UO-31 = experiment: NCI in vitro DTP human cell line screen, UO-31; details: Renal Cancer, 1.00E−5 Molar
Protocol: as §1

MDA-MB-435 = experiment: NCI in vitro DTP human cell line screen, MDA-MB-435; details: Melanoma, 1.00E−5 Molar
Protocol: as §1

HOP-62 = experiment: NCI in vitro DTP human cell line screen, HOP-62; details: Non-Small Cell Lung Cancer, 1.00E−5 Molar
Protocol: as §1

RXF 393 = experiment: NCI in vitro DTP human cell line screen, RXF 393; details: Renal Cancer, 1.00E−5 Molar
Protocol: as §1

TK-10 = experiment: NCI in vitro DTP human cell line screen, TK-10; details: Renal Cancer, 1.00E−5 Molar
Protocol: as §1

U251 = experiment: NCI in vitro DTP human cell line screen, U251; details: CNS Cancer, 1.00E−5 Molar
Protocol: as §1

PC-3 = experiment: NCI in vitro DTP human cell line screen, PC-3; details: Prostate Cancer, 1.00E−5 Molar
Protocol: as §1

MCF7 = experiment: NCI in vitro DTP human cell line screen, MCF7; details: Breast Cancer, 1.00E−5 Molar
Protocol: as §1

SR = experiment: NCI in vitro DTP human cell line screen, SR; details: Leukemia, 1.00E−5 Molar
Protocol: as §1

OVCAR-8 = experiment: NCI in vitro DTP human cell line screen, OVCAR-8; details: Ovarian Cancer, 1.00E−5 Molar
Protocol: as §1

OVCAR-5 = experiment: NCI in vitro DTP human cell line screen, OVCAR-5; details: Ovarian Cancer, 1.00E−5 Molar
Protocol: as §1

UACC-257 = experiment: NCI in vitro DTP human cell line screen, UACC-257; details: Melanoma, 1.00E−5 Molar
Protocol: as §1

SN12C = experiment: NCI in vitro DTP human cell line screen, SN12C; details: Renal Cancer, 1.00E−5 Molar
Protocol: as §1

K562 = experiment: NCI in vitro DTP human cell line screen, K562; details: Leukemia, 1.00E−5 Molar
Protocol: as §1

SK-MEL-5 = experiment: NCI in vitro DTP human cell line screen, SK-MEL-5; details: Melanoma, 1.00E−5 Molar
Protocol: as §1

CCRF-CEM = experiment: NCI in vitro DTP human cell line screen, CCRF-CEM; details: Leukemia, 1.00E−5 Molar
Protocol: as §1

SF-295 = experiment: NCI in vitro DTP human cell line screen, SF-295; details: CNS Cancer, 1.00E−5 Molar
Protocol: as §1

[1] = MTT assay, HEL299 fibroblast; details: human
Source text: Please refer to FIG. 4C, various cell viabilities of the HEL299 cell lines can be obtained through the MTT assay while the compounds No. 1˜30 are used to treat HEL299 cell lines, wherein HEL299 cell lines are fibroblast.

A control cell lines = experiment: MTT assay, A control cell lines (lung cancer cell)
Source text: Please refer to Table 1 and FIGS. 4A-4C. According to a MTT assay (Table 1), various cell viabilities of the A control cell lines can be obtained and illustrated in FIG. 4A while the compounds No. 2˜30 are used to treat A control cell lines, wherein A control cell lines are lung cancer cell.

MOLT-4 = experiment: NCI in vitro DTP human cell line screen, MOLT-4; details: Leukemia, 1.00E−5 Molar
Protocol: as §1

MDA-MB-231/ATCC = experiment: NCI in vitro DTP human cell line screen, MDA-MB-231/ATCC; details: Breast Cancer, 1.00E−5 Molar
Protocol: as §1

SF-539 = experiment: NCI in vitro DTP human cell line screen, SF-539; details: CNS Cancer, 1.00E−5 Molar
Protocol: as §1

SW-620 = experiment: NCI in vitro DTP human cell line screen, SW-620; details: Colon Cancer, 1.00E−5 Molar
Protocol: as §1

KM12 = experiment: NCI in vitro DTP human cell line screen, KM12; details: Colon Cancer, 1.00E−5 Molar
Protocol: as §1

MDA-MB-468 = experiment: NCI in vitro DTP human cell line screen, MDA-MB-468; details: Breast Cancer, 1.00E−5 Molar
Protocol: as §1

RPMI-8226 = experiment: NCI in vitro DTP human cell line screen, RPMI-8226; details: Leukemia, 1.00E−5 Molar
Protocol: as §1

HOP-92 = experiment: NCI in vitro DTP human cell line screen, HOP-92; details: Non-Small Cell Lung Cancer, 1.00E−5 Molar
Protocol: as §1

ACHN = experiment: NCI in vitro DTP human cell line screen, ACHN; details: Renal Cancer, 1.00E−5 Molar
Protocol: as §1

SF-268 = experiment: NCI in vitro DTP human cell line screen, SF-268; details: CNS Cancer, 1.00E−5 Molar
Protocol: as §1

UACC-62 = experiment: NCI in vitro DTP human cell line screen, UACC-62; details: Melanoma, 1.00E−5 Molar
Protocol: as §1

HS 578-T = experiment: NCI in vitro DTP human cell line screen, HS 578-T; details: Breast Cancer, 1.00E−5 Molar
Protocol: as §1

IGROV1 = experiment: NCI in vitro DTP human cell line screen, IGROV1; details: Ovarian Cancer, 1.00E−5 Molar
Protocol: as §1

SK-MEL-28 = experiment: NCI in vitro DTP human cell line screen, SK-MEL-28; details: Melanoma, 1.00E−5 Molar
Protocol: as §1

SK-OV-3 = experiment: NCI in vitro DTP human cell line screen, SK-OV-3; details: Ovarian Cancer, 1.00E−5 Molar
Protocol: as §1

OVCAR-4 = experiment: NCI in vitro DTP human cell line screen, OVCAR-4; details: Ovarian Cancer, 1.00E−5 Molar
Protocol: as §1

COLO 205 = experiment: NCI in vitro DTP human cell line screen, COLO 205; details: Colon Cancer, 1.00E−5 Molar
Protocol: as §1

NCI-H322M = experiment: NCI in vitro DTP human cell line screen, NCI-H322M; details: Non-Small Cell Lung Cancer, 1.00E−5 Molar
Protocol: as §1

## O=c1c2ccccc2sc2c(Cl)c(SCc3ccc(Cl)cc3)ccc12 [No. 26, 4-Chloro-3-(4-chlorobenzylthio)-9H-thioxanthen-9-one]
T-47D
  Growth Percent: 87.73%
M14
  Growth Percent: 101.01%
NCI-H522
  Growth Percent: 81.19%
786-0
  Growth Percent: 106.48%
HCT-116
  Growth Percent: 96.31%
SNB-19
  Growth Percent: 96.85%
BT-549
  Growth Percent: 94.67%
HCT-15
  Growth Percent: 104.80%
HCC-2998
  Growth Percent: 107.66%
A3 cell lines
  cell viabilities of A3 cell lines (MTT assay): 62.4%
UO-31
  Growth Percent: 89.66%
MDA-MB-435
  Growth Percent: 108.59%
HOP-62
  Growth Percent: 89.02%
RXF 393
  Growth Percent: 109.38%
TK-10
  Growth Percent: 100.13%
U251
  Growth Percent: 86.21%
PC-3
  Growth Percent: 93.28%
MCF7
  Growth Percent: 94.48%
SR
  Growth Percent: 93.51%
OVCAR-8
  Growth Percent: 86.47%
OVCAR-5
  Growth Percent: 102.23%
UACC-257
  Growth Percent: 92.94%
SN12C
  Growth Percent: 94.51%
K562
  Growth Percent: 113.64%
SK-MEL-5
  Growth Percent: 101.76%
CCRF-CEM
  Growth Percent: 92.28%
SF-295
  Growth Percent: 112.42%
[1]
  viability: 58.7 ± 5.55%
A control cell lines
  cell viabilities of A control cell lines (MTT assay): 96.8 ± 4.29%
MOLT-4
  Growth Percent: 96.00%
MDA-MB-231/ATCC
  Growth Percent: 95.00%
SF-539
  Growth Percent: 96.81%
SW-620
  Growth Percent: 105.00%
KM12
  Growth Percent: 107.42%
MDA-MB-468
  Growth Percent: 96.96%
RPMI-8226
  Growth Percent: 91.09%
HOP-92
  Growth Percent: 69.89%
ACHN
  Growth Percent: 91.82%
SF-268
  Growth Percent: 101.57%
UACC-62
  Growth Percent: 92.54%
HS 578-T
  Growth Percent: 108.61%
IGROV1
  Growth Percent: 104.47%
SK-MEL-28
  Growth Percent: 114.10%
SK-OV-3
  Growth Percent: 97.10%
OVCAR-4
  Growth Percent: 107.67%
COLO 205
  Growth Percent: 108.87%
NCI-H322M
  Growth Percent: 101.60%

## COc1ccc(CSc2ccc3c(=O)c4ccccc4sc3c2Cl)cc1 [No. 27, 4-Chloro-3-(4-methoxybenzylthio)-9H-thioxanthen-9-one]
T-47D
  Growth Percent: 88.81%
M14
  Growth Percent: 99.76%
NCI-H522
  Growth Percent: 94.65%
786-0
  Growth Percent: 100.89%
HCT-116
  Growth Percent: 95.54%
SNB-19
  Growth Percent: 97.16%
BT-549
  Growth Percent: 93.21%
HCT-15
  Growth Percent: 104.37%
HCC-2998
  Growth Percent: 105.73%
A3 cell lines
  cell viabilities of A3 cell lines (MTT assay): 101 ± 2.95%
UO-31
  Growth Percent: 102.53%
MDA-MB-435
  Growth Percent: 107.44%
HOP-62
  Growth Percent: 110.61%
RXF 393
  Growth Percent: 117.83%
TK-10
  Growth Percent: 105.39%
U251
  Growth Percent: 96.42%
PC-3
  Growth Percent: 93.39%
MCF7
  Growth Percent: 101.77%
SR
  Growth Percent: 84.48%
OVCAR-8
  Growth Percent: 95.58%
OVCAR-5
  Growth Percent: 103.70%
UACC-257
  Growth Percent: 100.47%
SN12C
  Growth Percent: 94.49%
K562
  Growth Percent: 114.13%
SK-MEL-5
  Growth Percent: 101.55%
CCRF-CEM
  Growth Percent: 89.83%
SF-295
  Growth Percent: 107.03%
[1]
  viability: 92.4%
A control cell lines
  cell viabilities of A control cell lines (MTT assay): 50.5%
A control cell lines; summary of MTT cell viabilities
  inhibition effect on A control cell line (in words): inhibition effect
MOLT-4
  Growth Percent: 102.31%
MDA-MB-231/ATCC
  Growth Percent: 96.93%
SF-539
  Growth Percent: 106.78%
SW-620
  Growth Percent: 106.98%
KM12
  Growth Percent: 108.05%
MDA-MB-468
  Growth Percent: 102.80%
RPMI-8226
  Growth Percent: 103.69%
HOP-92
  Growth Percent: 78.71%
ACHN
  Growth Percent: 104.71%
SF-268
  Growth Percent: 101.32%
UACC-62
  Growth Percent: 91.61%
HS 578-T
  Growth Percent: 124.03%
IGROV1
  Growth Percent: 108.76%
SK-MEL-28
  Growth Percent: 118.75%
SK-OV-3
  Growth Percent: 107.96%
OVCAR-4
  Growth Percent: 104.27%
COLO 205
  Growth Percent: 99.12%
NCI-H322M
  Growth Percent: 95.82%
